How the values were obtained:
D(4) dopamine receptor = biological target: T1, D(4) dopamine receptor (Homo sapiens, UniProt P21917)
T1 sequence (P21917 whole entry): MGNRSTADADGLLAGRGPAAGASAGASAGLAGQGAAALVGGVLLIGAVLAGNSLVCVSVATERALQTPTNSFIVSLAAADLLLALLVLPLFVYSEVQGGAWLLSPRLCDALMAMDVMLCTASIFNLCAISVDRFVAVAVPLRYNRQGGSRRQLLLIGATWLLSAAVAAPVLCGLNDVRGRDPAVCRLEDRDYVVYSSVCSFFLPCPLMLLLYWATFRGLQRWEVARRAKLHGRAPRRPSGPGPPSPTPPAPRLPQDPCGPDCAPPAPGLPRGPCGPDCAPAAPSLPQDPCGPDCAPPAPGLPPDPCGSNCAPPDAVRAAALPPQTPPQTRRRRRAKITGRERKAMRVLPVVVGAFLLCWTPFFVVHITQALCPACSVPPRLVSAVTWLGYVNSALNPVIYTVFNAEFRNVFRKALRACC

[1] = biological target: Beta-3 adrenergic receptor (Homo sapiens, UniProt P13945)
Histamine H2 receptor = Histamine H2 receptor (Homo sapiens, UniProt P25021)
[2] = biological target: T2, Gastric inhibitory polypeptide receptor (Homo sapiens, UniProt P48546)
T2 sequence (P48546 whole entry): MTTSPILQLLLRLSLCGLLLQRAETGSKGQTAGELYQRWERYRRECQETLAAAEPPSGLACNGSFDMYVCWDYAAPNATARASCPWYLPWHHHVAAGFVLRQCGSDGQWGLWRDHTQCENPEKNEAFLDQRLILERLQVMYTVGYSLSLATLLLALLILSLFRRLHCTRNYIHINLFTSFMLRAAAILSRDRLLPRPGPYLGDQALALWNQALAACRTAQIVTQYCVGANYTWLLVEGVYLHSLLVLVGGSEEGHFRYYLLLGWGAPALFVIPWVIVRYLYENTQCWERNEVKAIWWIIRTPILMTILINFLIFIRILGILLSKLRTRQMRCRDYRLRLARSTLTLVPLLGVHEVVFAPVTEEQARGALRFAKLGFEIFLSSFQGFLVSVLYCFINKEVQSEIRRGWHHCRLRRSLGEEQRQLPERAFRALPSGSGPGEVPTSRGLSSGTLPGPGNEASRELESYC

Substance-P receptor = Substance-P receptor (Homo sapiens, UniProt P25103)
[3] = biological target: Neurotensin receptor type 1 (Homo sapiens, UniProt P30989)
Progesterone receptor = biological target: T3, Progesterone receptor (Homo sapiens, UniProt P06401)
T3 sequence (P06401 whole entry): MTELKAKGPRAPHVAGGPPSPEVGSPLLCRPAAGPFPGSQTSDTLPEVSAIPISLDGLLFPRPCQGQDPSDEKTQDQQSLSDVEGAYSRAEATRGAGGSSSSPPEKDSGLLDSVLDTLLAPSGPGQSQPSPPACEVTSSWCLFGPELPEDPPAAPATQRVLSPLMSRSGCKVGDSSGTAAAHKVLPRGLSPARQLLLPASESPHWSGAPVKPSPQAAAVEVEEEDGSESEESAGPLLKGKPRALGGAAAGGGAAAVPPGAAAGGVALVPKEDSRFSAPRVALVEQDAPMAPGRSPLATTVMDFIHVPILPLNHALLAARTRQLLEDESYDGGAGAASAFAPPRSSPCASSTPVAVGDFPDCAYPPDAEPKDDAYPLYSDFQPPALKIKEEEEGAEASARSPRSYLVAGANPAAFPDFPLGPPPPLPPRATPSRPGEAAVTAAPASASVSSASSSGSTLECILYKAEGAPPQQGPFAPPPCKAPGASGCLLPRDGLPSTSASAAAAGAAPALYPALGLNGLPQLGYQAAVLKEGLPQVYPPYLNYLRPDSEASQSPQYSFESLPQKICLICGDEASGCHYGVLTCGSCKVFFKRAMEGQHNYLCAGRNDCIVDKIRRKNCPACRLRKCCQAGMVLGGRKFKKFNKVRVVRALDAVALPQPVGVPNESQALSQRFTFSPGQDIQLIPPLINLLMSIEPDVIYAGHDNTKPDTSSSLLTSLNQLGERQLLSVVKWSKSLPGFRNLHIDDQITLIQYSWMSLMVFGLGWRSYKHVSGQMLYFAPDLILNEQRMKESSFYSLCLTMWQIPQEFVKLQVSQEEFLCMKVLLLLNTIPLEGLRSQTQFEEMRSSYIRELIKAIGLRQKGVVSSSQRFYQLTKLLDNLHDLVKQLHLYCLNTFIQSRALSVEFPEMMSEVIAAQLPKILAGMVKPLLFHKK

[4] = biological target: T4, Muscarinic acetylcholine receptor M1 (Homo sapiens, UniProt P11229); type: functional, cell-based
T4 sequence (P11229 whole entry): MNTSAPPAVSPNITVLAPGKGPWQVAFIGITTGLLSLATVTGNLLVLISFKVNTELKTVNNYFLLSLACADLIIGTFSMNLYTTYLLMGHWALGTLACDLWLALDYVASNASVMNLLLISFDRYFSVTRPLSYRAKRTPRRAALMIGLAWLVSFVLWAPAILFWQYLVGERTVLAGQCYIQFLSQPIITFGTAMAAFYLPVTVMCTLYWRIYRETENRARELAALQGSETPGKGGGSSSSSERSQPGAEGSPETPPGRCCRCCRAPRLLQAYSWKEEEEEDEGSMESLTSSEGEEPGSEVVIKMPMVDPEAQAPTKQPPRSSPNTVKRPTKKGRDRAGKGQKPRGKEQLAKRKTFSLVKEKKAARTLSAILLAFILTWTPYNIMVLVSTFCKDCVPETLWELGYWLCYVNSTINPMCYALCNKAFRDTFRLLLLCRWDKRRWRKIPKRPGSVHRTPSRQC
Note: assay procedure not described here.

Chain of Substance-P receptor (P25103 whole entry): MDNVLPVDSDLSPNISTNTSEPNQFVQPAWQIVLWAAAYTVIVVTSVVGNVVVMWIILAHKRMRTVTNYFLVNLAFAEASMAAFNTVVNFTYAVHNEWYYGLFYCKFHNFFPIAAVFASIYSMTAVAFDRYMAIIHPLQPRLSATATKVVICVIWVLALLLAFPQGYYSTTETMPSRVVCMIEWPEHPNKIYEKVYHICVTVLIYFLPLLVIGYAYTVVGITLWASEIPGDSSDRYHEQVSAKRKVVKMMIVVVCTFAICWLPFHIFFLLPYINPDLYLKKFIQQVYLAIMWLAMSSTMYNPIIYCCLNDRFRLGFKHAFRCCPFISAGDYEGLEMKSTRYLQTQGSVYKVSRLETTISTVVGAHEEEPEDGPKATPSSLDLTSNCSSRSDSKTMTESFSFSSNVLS
Chain of Histamine H2 receptor (P25021 whole entry): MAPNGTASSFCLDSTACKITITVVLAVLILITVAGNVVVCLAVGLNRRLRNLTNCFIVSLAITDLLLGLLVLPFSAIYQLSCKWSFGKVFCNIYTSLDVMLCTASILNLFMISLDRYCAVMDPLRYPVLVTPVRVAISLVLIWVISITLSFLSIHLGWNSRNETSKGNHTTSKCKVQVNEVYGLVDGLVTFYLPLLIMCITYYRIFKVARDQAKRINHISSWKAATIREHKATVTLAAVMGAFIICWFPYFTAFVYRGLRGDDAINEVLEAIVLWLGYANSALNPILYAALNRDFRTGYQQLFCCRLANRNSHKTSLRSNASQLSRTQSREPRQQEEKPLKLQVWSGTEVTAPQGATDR
Chain of Neurotensin receptor type 1 (P30989 whole entry): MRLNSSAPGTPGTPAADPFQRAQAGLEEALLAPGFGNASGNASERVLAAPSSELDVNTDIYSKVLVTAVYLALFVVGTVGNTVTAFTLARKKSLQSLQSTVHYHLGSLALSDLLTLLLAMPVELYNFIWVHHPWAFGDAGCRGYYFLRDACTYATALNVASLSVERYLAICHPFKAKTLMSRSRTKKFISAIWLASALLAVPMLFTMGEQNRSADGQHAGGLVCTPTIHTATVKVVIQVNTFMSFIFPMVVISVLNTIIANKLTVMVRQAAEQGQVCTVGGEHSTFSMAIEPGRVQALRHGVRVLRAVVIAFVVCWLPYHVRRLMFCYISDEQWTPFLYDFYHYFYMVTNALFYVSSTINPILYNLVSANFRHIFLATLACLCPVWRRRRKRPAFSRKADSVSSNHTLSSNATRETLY
Chain of Beta-3 adrenergic receptor (P13945 whole entry): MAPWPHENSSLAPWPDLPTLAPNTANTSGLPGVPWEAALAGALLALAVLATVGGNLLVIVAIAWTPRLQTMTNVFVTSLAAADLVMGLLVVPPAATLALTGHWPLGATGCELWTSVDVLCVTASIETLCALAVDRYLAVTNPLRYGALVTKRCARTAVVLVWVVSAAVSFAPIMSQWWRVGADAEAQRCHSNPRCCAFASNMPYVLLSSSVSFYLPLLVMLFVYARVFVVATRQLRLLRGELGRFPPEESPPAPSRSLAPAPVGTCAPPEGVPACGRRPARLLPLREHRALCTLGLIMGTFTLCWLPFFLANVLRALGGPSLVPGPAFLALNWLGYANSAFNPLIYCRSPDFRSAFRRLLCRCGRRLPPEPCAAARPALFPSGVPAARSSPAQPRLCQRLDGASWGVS

Row | SMILES | AC50 (D(4) dopamine receptor) | AC50 [1] | AC50 (Histamine H2 receptor) | AC50 [2] | AC50 (Substance-P receptor) | AC50 [3] | AC50 (Progesterone receptor) | AC50 [4]
1 | CCOC(=O)[C@H](CCc1ccccc1)N[C@@H](C)C(=O)N1CCC[C@H]1C(=O)O | > 10 µM | > 30 µM | > 10 µM | > 30 µM | > 10 µM | > 30 µM |  | 
2 | Nc1nc(N)c2nc(-c3ccccc3)c(N)nc2n1 | > 10 µM | > 30 µM | > 10 µM | > 30 µM | > 10 µM | > 30 µM | > 30 µM | 
3 | C[C@H]1O[C@H](O[C@H]2[C@H](O)[C@@H](O)[C@@H](O[C@H]3[C@H](O)[C@@H](O)C(O)O[C@@H]3CO)O[C@@H]2CO)[C@H](O)[C@@H](O)[C@@H]1N[C@H]1C=C(CO)[C@@H](O)[C@H](O)[C@H]1O (stereo partly drawn) [ACARBOSE] | > 10 µM | > 30 µM | > 10 µM | > 30 µM | > 10 µM | > 30 µM | > 30 µM | 
4 | Oc1ncnc2[nH]ncc12 [ALLOPURINOL] | > 10 µM | > 30 µM | > 10 µM | > 30 µM | > 10 µM | > 30 µM | > 30 µM | 
5 | O=C1c2c(O)c(=O)ccn2N([C@@H]2c3ccccc3SCc3c2ccc(F)c3F)[C@@H]2COCCN12 [BALOXAVIR] |  |  |  |  |  |  |  | > 30 µM
6 | C(=N\NC1=NCCN1)/c1c2ccccc2c(/C=N/NC2=NCCN2)c2ccccc12 [BISANTRENE] |  |  |  |  |  |  |  | > 10 µM
7 | CC(C)NCC(O)COc1ccc(COCCOC(C)C)cc1 (stereo not drawn) [BISOPROLOL] | > 10 µM |  | > 10 µM | > 30 µM | > 10 µM | > 30 µM | > 30 µM | 
8 | COc1cc(Nc2c(C#N)cnc3cc(OCCCN4CCN(C)CC4)c(OC)cc23)c(Cl)cc1Cl [BOSUTINIB] | > 10 µM | 16.8 µM |  | > 30 µM | 8 µM | > 30 µM | > 30 µM | > 10 µM
9 | CCO/N=C(\C(=O)N[C@@H]1C(=O)N2C(C(=O)[O-])=C(Sc3nc(-c4cc[n+](C)cc4)cs3)CS[C@H]12)c1nsc(N)n1 [CEFTAROLINE] |  |  |  |  |  |  |  | > 30 µM
10 | CCC[C@@H]1C[C@@H](C(=O)N[C@@H]([C@H]2O[C@H](SC)[C@H](O)[C@@H](O)[C@H]2O)[C@H](C)Cl)N(C)C1 [CLINDAMYCIN] | > 10 µM | > 30 µM | > 10 µM | > 30 µM | > 10 µM | > 30 µM | > 30 µM | 
11 | C[N+](C)(C)CCCCCCCCCC[N+](C)(C)C [DECAMETHONIUM] |  |  |  |  |  |  |  | > 30 µM
12 | O=C1c2ccccc2C(=O)C1C(=O)C(c1ccccc1)c1ccccc1 [DIPHENADIONE] |  |  |  |  |  |  |  | 7.26 µM
13 | CN(CCOc1ccc(NS(C)(=O)=O)cc1)CCc1ccc(NS(C)(=O)=O)cc1 [DOFETILIDE] | > 10 µM | > 30 µM | > 10 µM | > 30 µM | > 10 µM | > 30 µM | > 30 µM | > 30 µM
14 | C#C[C@]1(O)CC[C@H]2[C@@H]3CCc4cc(O)ccc4[C@H]3CC[C@@]21C [ETHINYL ESTRADIOL] | > 10 µM | 35.4 µM | > 10 µM | > 30 µM | > 10 µM | > 30 µM | > 30 µM | 
15 | CCOC(=O)c1ccc(O)cc1 [ETHYLPARABEN] |  |  |  |  |  |  |  | > 30 µM
16 | O=C1[C@H](CC[C@H](O)c2ccc(F)cc2)[C@@H](c2ccc(O)cc2)N1c1ccc(F)cc1 [EZETIMIBE] |  |  |  |  |  |  |  | > 30 µM
17 | NC(N)=Nc1nc(CSCCC(N)=NS(N)(=O)=O)cs1 [FAMOTIDINE] | > 10 µM | > 30 µM | 0.0063 µM | > 30 µM | > 10 µM | > 30 µM | > 30 µM | 

Row | SMILES | AC50 (D(4) dopamine receptor) | AC50 [1] | AC50 (Histamine H2 receptor) | AC50 [2] | AC50 (Substance-P receptor) | AC50 [3] | AC50 (Progesterone receptor) | AC50 [4]
18 | O=C(COc1ccc(Cl)cc1)N1CCN(Cc2ccc3c(c2)OCO3)CC1 [FIPEXIDE] |  |  |  |  |  |  |  | > 30 µM
19 | CCC(=O)c1c(O)cc(O)cc1O [FLOPROPIONE] |  |  |  |  |  |  |  | > 30 µM
20 | NS(=O)(=O)c1cc2c(cc1Cl)NCNS2(=O)=O [HYDROCHLOROTHIAZIDE] | > 10 µM | > 30 µM | > 10 µM | > 30 µM | > 10 µM | > 30 µM | > 30 µM | 
21 | CC(=O)Oc1c(C)cc(OCC(O)CNC(C)C)c(C)c1C (stereo not drawn) [METIPRANOLOL] |  |  |  |  |  |  |  | > 30 µM
22 | CCN(CC)CCNC(=O)c1cc(Cl)c(N)cc1OC [METOCLOPRAMIDE] | 1.16 µM | > 30 µM | > 10 µM | > 30 µM | > 10 µM | > 30 µM | > 30 µM | 
23 | CCc1nn(CCCN2CCN(c3cccc(Cl)c3)CC2)c(=O)n1CCOc1ccccc1 [NEFAZODONE] | 0.271 µM | 9.5 µM |  | > 30 µM | 2.45 µM | > 30 µM | > 30 µM | 
24 | NC1=NC(=O)C(c2ccccc2)O1 (stereo not drawn) [PEMOLINE] |  |  |  |  |  |  | > 30 µM | 
25 | CC(N/C(=N\C#N)Nc1ccncc1)C(C)(C)C (stereo not drawn) [PINACIDIL ANHYDROUS] |  |  |  |  |  |  |  | > 30 µM
26 | CCc1ccc(CCOc2ccc(CC3SC(=O)NC3=O)cc2)nc1 (stereo not drawn) [PIOGLITAZONE] | > 10 µM | > 30 µM | > 10 µM | > 30 µM | > 10 µM | > 30 µM | > 30 µM | 
27 | NC(=O)c1cnccn1 [PYRAZINAMIDE] | > 10 µM | > 30 µM | > 10 µM | > 30 µM |  | > 30 µM | > 30 µM | 
28 | CN(C)C(=O)Oc1ccc[n+](C)c1 [PYRIDOSTIGMINE] |  |  |  |  |  |  |  | > 30 µM
29 | O=C(NC[C@H]1CN(c2ccc(N3CCOCC3=O)cc2)C(=O)O1)c1ccc(Cl)s1 [RIVAROXABAN] |  |  |  |  |  |  |  | > 30 µM
30 | CC(C)OC(=O)[C@H](C)N[P@](=O)(OC[C@H]1O[C@@H](n2ccc(=O)[nH]c2=O)[C@](C)(F)[C@@H]1O)Oc1ccccc1 [SOFOSBUVIR] |  |  |  |  |  |  |  | > 30 µM
31 | Cc1ccc(O)c2ncccc12 [TILIQUINOL] |  |  |  |  |  |  |  | > 30 µM
32 | CC(=O)OC[C@H]1O[C@@H](n2ccc(=O)[nH]c2=O)[C@H](OC(C)=O)[C@@H]1OC(C)=O [URIDINE TRIACETATE] |  |  |  |  |  |  |  | > 30 µM
33 | CCOC(=O)N[C@@H]1CC[C@@H]2[C@@H](C1)C[C@H]1C(=O)O[C@H](C)[C@H]1[C@H]2/C=C/c1ccc(-c2cccc(F)c2)cn1 [VORAPAXAR] |  |  |  |  |  |  |  | > 30 µM
34 | O=C(CCCCCCC(=O)Nc1ccccc1)NO [VORINOSTAT] | > 10 µM |  | > 10 µM |  | > 10 µM |  |  | 

From ChEMBL document CHEMBL5291721, “A preclinical secondary pharmacology resource illuminates target-adverse drug reaction associations of marketed drugs” (Nat Commun, 2023)
